Assay results published in patent US8906832B2, “Quantitative analysis of carbohydrate-protein interactions using glycan microarrays: determination of surface and solution dissociation constants” (Academia Sinica, priority 2008, dated 2014).
Where two headings read alike, the source gives them in different places.

Assays:
Con A [1] = molecular target: T1, Con A (Canavalia ensiformis, UniProt P02866); conditions: obtained by microcalorimetry; cited from earlier work
T1 construct: purchased Sigma

Con A [2] = molecular target: T1, Con A; conditions: obtained by SPR; cited from earlier work
Con A [3] = molecular target: T1, Con A; assay: Competitive binding assay on glycan microarray (solution KD / Ki)
Source text: The solution equilibrium dissociation constant (KD) for carbohydrate-lectin interactions can be determined using microarrays in a competitive assay. […] In a competitive binding experiment, carbohydrates in solution compete with immobilized carbohydrate ligands for the binding sites on the lectin, establishing a coupled equilibrium between the binding of protein to the immobilized species and to the species present in solution. Using array imaging signals, the unbound protein concentration [P] can be obtained via Langmuir isotherms (eq 1). Once the concentration of P has been measured, it is possible to determine the KD using eq 2, which is derived from the multivalent Scatchard formula (see the Experimental Section for the derivation of eq 2)
where [Lo] is ligand (carbohydrate) concentration applied to the system, and KD is the solution equilibrium dissociation constant. […] Binding curves, representing different concentrations of competitors were obtained as the function of FITC-Con A concentrations and fluorescence intensities from the Man8 surface (FIG. 4a). The data was analyzed according to eq 2, to afford apparent KD values, which were then replotted against competitor concentration to afford the solution KD values (FIG. 4b). […]
ArrayVision 8.0 (Applied Precision) was used for the fluorescence analysis and extraction of data. […]

lectins or antibodies = molecular target: T2, lectins or antibodies (Lens culinaris, UniProt P02870); assay: Direct binding on glycan microarray, lectin or antibody not named; conditions: binding protein not given
T2 construct: purchased Sigma
T2 sequence (P02870 31-210 limits assumed): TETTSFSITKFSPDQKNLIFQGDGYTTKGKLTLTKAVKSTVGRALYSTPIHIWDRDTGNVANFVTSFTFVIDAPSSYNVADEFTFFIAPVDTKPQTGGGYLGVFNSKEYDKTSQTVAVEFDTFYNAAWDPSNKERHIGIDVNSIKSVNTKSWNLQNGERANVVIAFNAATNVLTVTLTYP
T2 sequence (P02870 218-269 limits assumed): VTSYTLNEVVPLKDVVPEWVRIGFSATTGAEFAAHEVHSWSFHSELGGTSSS
Source text: Prior studies of carbohydrate-protein interactions have used a threshold-based, one-step qualitative analysis i.e. interaction or non-interaction. The threshold varies from one carbohydrate to another and is based on how well the carbohydrate behaves in the assay. Even when closely related glycans are studied under ideal conditions, they vary with respect to the surface density of active carbohydrates. Since the intensity of a spot depends both on KD,surf (which results from binding affinity), and Fmax (which results from surface active carbohydrate density and protein binding), the information obtained by probing an array with a single concentration of analytes may not be accurate.

Row | Compound | Ki (Con A [1]) [µM] | Ki (Con A [2]) [µM] | relative affinity KD (a-MeGlc)/KD (a-MeMan) (Con A [3]; inhibitors in solution, Con A) | Fmax (maximal fluorescence intensity) (lectins or antibodies) | Kd (lectins or antibodies; read-out: KD (dissociation constant, surface)) [µM] | fold stronger than Man1 in binding to Con A (Con A [3]; from solution KD values)
1 | COC1OC(CO)C(O)C(O)C1O (stereo not drawn) [a-MeMan, α-methyl mannose] | 120 | 92 | 4.3 | – | – | –
2 | COC1OC(CO)C(O)C(O)C1O (stereo not drawn) [a-MeGlc, α-methyl glucose] | 520 | – | – | – | – | –
3 | Man9 | – | – | – | 25780 | 0.335 | more than 10^3 fold
